Measured values from patent US5061728A, “Use of 4-phenyl-1,2,3,4-tetrahydro-1-naphthalenamine derivatives in the treatment of inflammation and as immunosuppressants” (Pfizer Inc., priority 1990, dated 1991).

What follows are compounds tested against sigma receptors in brain tissue (assay: In vitro binding: inhibition of (+)-[3H]3-PPP binding in rat whole brain membranes). Conditions: Table 1, racemates, 3 nM (+)-[3H]3-PPP.
Procedure: Affinity of disclosed compounds for sigma receptors in brain tissue was ascertained by the degree of inhibition of binding of the sigma site radioligand, (+)-[^3 H]3-(3-hydroxphenyl)-N-(1-propyl)piperidine ((+)-[^3 H]3-PPP) in competition experiments in vitro. These experiments were conducted by the method of Largent et al. Proc. Nat. Acad. Sec. […] Brains were removed from Sprague-DawleyCD male rats (Charles River Breeding Laboratories, Inc., Wilmington, Mass.; 200-300 g) following decapitation. Whole brain was homogenized in 25 volumes (v/w) of ice-cold 50 mM Tris (tris(hydroxymethyl)amino methane) hydrochloride pH 7.7 buffer using a Polytron PT-10 homogenizer. The pellet resulting from centrifugation of the homogenate at 45,000×g for 10 minutes at 0°-5° was washed twice by resuspension in the same volume of fresh buffer and recentrifugation. The final pellet was dispersed in 50 mM Tris hydrochloride pH 8.0 buffer (50 ml/g of original weight; "tissue preparation"). The incubation mixture in triplicate was comprised of 0.05 ml blank (10 μM pentazocine for nonspecific binding), test compound or vehicle; 0.20 ml (+)-[^3 H]3-PPP (110 Ci/mmol, NEN® DuPont; 3 nM final concentration) in 50 mM Tris hydrochloride pH 8.0 buffer; and 0.75 ml tissue preparation. The latter was added just prior to incubation of the mixture at 25° C. for 90 minutes. Afterwards, the mixture was diluted with 2.5 ml 10 mM Tris hydrochloride pH 7.7 buffer and filtered under vacuum through a Whatman GF/B glass-fiber filter (pretreated with 1% polyethyleneimine) in a Brandell cell harvester to recover the membranes. The filter was washed twice with the diluent buffer and placed in 10 ml Aquasol-2 (NEN® DuPont Co.) for determination of bound radioactivity in a liquid scintillation counter.

Row | SMILES | IC50 [nM]
1 | CN(C)[C@H]1CC[C@H](c2ccc(Cl)c(Cl)c2)c2ccccc21 (relative stereo) [(±)-trans 3,4-diCl N(CH3)2] | 30
2 | CN[C@H]1CC[C@H](c2ccc(C(F)(F)F)cc2)c2ccccc21 (relative stereo) [(±)-trans 4-CF3 NHCH3] | 39
3 | CN[C@H]1CC[C@@H](c2ccc(Br)cc2)c2ccccc21 (relative stereo) [(±)-cis 4-Br NHCH3] | 13
4 | CN[C@H]1CC[C@H](c2ccc(F)cc2)c2ccccc21 (relative stereo) [(±)-trans 4-F NHCH3] | 66
5 | CN[C@H]1CC[C@H](c2cccc(C(F)(F)F)c2)c2ccccc21 (relative stereo) [(±)-trans 3-CF3 NHCH3] | 16
6 | CN[C@H]1CC[C@H](c2ccc(Br)cc2)c2ccccc21 (relative stereo) [(±)-trans 4-Br NHCH3] | 85
7 | CN[C@H]1CC[C@H](c2ccc(Cl)c(C(F)(F)F)c2)c2ccccc21 (relative stereo) [(±)-trans 3-CF3,4-Cl NHCH3] | 31
8 | CN(C)[C@H]1CC[C@@H](c2ccc(Cl)c(Cl)c2)c2ccccc21 (relative stereo) [(±)-cis 3,4-diCl N(CH3)2] | 44
9 | CN[C@H]1CC[C@@H](c2ccc(Cl)cc2Cl)c2ccccc21 (relative stereo) [(±)-cis 2,4-diCl NHCH3] | 29
10 | CN[C@H]1CC[C@@H](c2ccc(Cl)cc2)c2ccccc21 (relative stereo) [(±)-cis 4-Cl NHCH3] | 33
11 | CN[C@H]1CC[C@@H](c2ccc(Cl)c(C(F)(F)F)c2)c2ccccc21 (relative stereo) [(±)-cis 3-CF3,4-Cl NHCH3] | 11
12 | CN[C@H]1CC[C@H](c2ccc(Cl)cc2)c2ccccc21 (relative stereo) [(±)-trans 4-Cl NHCH3] | 75
13 | CN[C@H]1CC[C@@H](c2ccc(C(F)(F)F)cc2)c2ccccc21 (relative stereo) [(±)-cis 4-CF3 NHCH3] | 5.9

Same assay, conditions: Table 2, enantiomers, 3 nM (+)-[3H]3-PPP

Row | SMILES | IC50 [nM]
14 | N[C@H]1CC[C@@H](c2ccc(Cl)c(Cl)c2)c2ccccc21 [(+)-1S, 4S 3,4-diCl NH2, Cis(1S) (4S)-amino-4-(3,4-dichlorophenyl)-1,2,3,4-tetrahydro-1-naphthalenamine] | 58
15 | CN[C@H]1CC[C@@H](c2ccc(Cl)cc2)c2ccccc21 [(+)-1S, 4S 4-Cl NHCH3, Cis(1S) (4S)-N-methyl-4-(4-chlorophenyl)-1,2,3,4-tetrahydro-1-naphthalenamine] | 8.7
16 | CN[C@H]1CC[C@@H](c2ccc(Cl)c(C(F)(F)F)c2)c2ccccc21 [(+)-1S, 4S 3-CF3,4-Cl NHCH3, Cis(1S) (4S)-N-methyl-4-(3-trifluoromethyl, 4-chloro-phenyl)-1,2,3,4-tetrahydro-1-naphthalenamine] | 17
17 | CN(C)[C@H]1CC[C@@H](c2ccc(Cl)c(Cl)c2)c2ccccc21 [(+)-1S, 4S 3,4-diCl N(CH3)2, Cis(1S) (4S)-N,N-dimethyl-4-(3,4-dichlorophenyl)-1,2,3,4-tetrahydro-1-naphthalenamine] | 28
